What was measured:
Cochliobolus sativus = test: Spot Blotch of Wheat (COCHSA), whole-plant fungicide test; type: in vivo; conditions: Bipolaris sorokiniana, foliar, 24 h, 200 ppm on foliage, one-day protectant test, read-out: COCHSA percent control of disease
Outline: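 Percent control is derived from disease severity relative to untreated inoculated plants, scored 4–28 days later. Spore inoculation followed foliar spraying by one day (protectant) or preceded it by two days (curative); plants kept humid 1-2 days before greenhouse. Spray dose was 200 ppm, occasionally 100, 75 or 8.3 ppm, in acetone/Triton X100 water.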

Colletotricum lagenarium = test: Cucumber Anthracnose (COLLLA), whole-plant fungicide test; type: in vivo; conditions: Cucumis sativus, foliar, 24 h, 200 ppm on foliage, one-day protectant test, read-out: COLLLA percent control of disease
Erysiphe cichoracaerum = test: Cucumber Powdery Mildew (ERYSCI), whole-plant fungicide test; type: in vivo; conditions: 200 ppm on foliage, one-day protectant test; for pest or weed control at 200 ppm: Erysiphe, foliar, 24 h, read-out: ERYSCI percent control of disease
[1] = tested on: Erysiphe graminis f. sp. tritici; test: Powdery Mildew of Wheat (ERYSGT), whole-plant fungicide test; type: in vivo; conditions: Blumeria graminis, foliar, 24 h, 200 ppm on foliage, one-day protectant test, read-out: ERYSGT percent control of disease
Leptosphaeria nodorum = test: Glume Blotch of Wheat (LEPTNO), whole-plant fungicide test; type: in vivo; conditions: Parastagonospora nodorum, foliar, 24 h, 200 ppm on foliage, one-day protectant test, read-out: LEPTNO percent control of disease
Phytophthora infestans = test: whole plant or invertebrate; type: in vivo; conditions: Phytophthora infestans, in Solanum lycopersicum, foliar, 24 h, read-out: PHYTIN percent control of disease, 200 ppm on foliage, tomato, one-day protectant test
[2] = tested on: Puccinia recondita tritici; test: Leaf Rust of Wheat (PUCCRT), whole-plant fungicide test; type: in vivo; conditions: 200 ppm on foliage, one-day protectant test; for pest or weed control at 200 ppm: Puccinia recondita, foliar, 24 h, read-out: PUCCRT percent control of disease
Magnaporthe grisea = test: whole plant or invertebrate; type: in vivo; conditions: for pest or weed control at 200 ppm: Pyricularia oryzae, in Oryza sativa, foliar, 24 h, read-out: PYRIOR percent control of disease, 200 ppm on foliage, rice, one-day protectant test
Septoria tritici = test: Speckled Leaf Blotch of Wheat (SEPTTR), whole-plant fungicide test; type: in vivo; conditions: Zymoseptoria tritici, foliar, 24 h, 200 ppm on foliage, one-day protectant test, read-out: SEPTTR percent control of disease

SMILES | pest or weed control at 200 ppm (Cochliobolus sativus) [%] | pest or weed control at 200 ppm (Colletotricum lagenarium) [%] | pest or weed control at 200 ppm (Erysiphe cichoracaerum) [%] | pest or weed control at 200 ppm [1] [%] | pest or weed control at 200 ppm (Leptosphaeria nodorum) [%] | pest or weed control at 200 ppm (Phytophthora infestans) [%] | pest or weed control at 200 ppm [2] [%] | pest or weed control at 200 ppm (Magnaporthe grisea) [%] | pest or weed control at 200 ppm (Septoria tritici) [%] | melting point [°C] | ERYSCI percent control of disease (Erysiphe cichoracaerum) | PUCCRT percent control of disease [2] | PYRIOR percent control of disease (Magnaporthe grisea; 200 ppm on foliage, rice, one-day protectant test)
O[C@@H](CNc1ncnc2scc(Cl)c12)c1ccccc1 [Compound 32] | 0 to 49 | 0 to 49 | 0 to 49 | 0 to 49 | 0 to 49 | 0 to 49 | 80 to 100 | 80 to 100 | 0 to 49 | 111 to 112 |  |  | 
OCC(Cc1ccccc1)Nc1ncnc2scc(Cl)c12 (centres unmarked) [Compound 31] | 0 to 49 | 0 to 49 | 80 to 100 | 0 to 49 | 0 to 49 | 80 to 100 | 80 to 100 | 80 to 100 | 0 to 49 | 104 to 105 |  |  | 
CCOc1ccc(C(C)Nc2ncnc3scc(Cl)c23)cn1 (centres unmarked) [Compound 39] | 0 to 49 | 0 to 49 | 80 to 100 | 80 to 100 | 80 to 100 | 50 to 79 | 80 to 100 | 80 to 100 | 80 to 100 |  |  |  | 
CC(C)c1ccc(C(C)Nc2ncnc3scc(Cl)c23)nc1 (centres unmarked) [Compound 34] | 0 to 49 | 50 to 79 | 80 to 100 | 80 to 100 | 80 to 100 | 0 to 49 | 80 to 100 | 80 to 100 | 50 to 79 |  |  |  | 
COCc1ccc(C(C)Nc2ncnc3scc(Cl)c23)cc1 (centres unmarked) [Compound 14] | 0 to 49 | 80 to 100 | 80 to 100 | 80 to 100 | 80 to 100 | 80 to 100 | 80 to 100 | 80 to 100 | 80 to 100 |  |  |  | 
COc1cnc(C(C)Nc2ncnc3scc(Cl)c23)nc1 (centres unmarked) [Compound 36] | 0 to 49 | 0 to 49 | 0 to 49 | 0 to 49 | 0 to 49 | 80 to 100 | 80 to 100 | 80 to 100 | 50 to 79 |  |  |  | 
OCC(Nc1ncnc2scc(Cl)c12)c1ccccc1 (centres unmarked) [Compound 30] | 0 to 49 | 0 to 49 |  | 0 to 49 | 0 to 49 | 0 to 49 |  |  | 0 to 49 | 120 | *** (*** is 80-100 percent control of disease) | *** (*** is 80-100 percent control of disease) | *** (*** is 80-100 percent control of disease)
CC(COc1ccccn1)Nc1ncnc2scc(Cl)c12 (centres unmarked) [Compound 37, 5-(chlorothieno[2,3-d]pyrimidin-4-yl)-[1-methyl-2-(pyridin-2-yloxy)ethyl]amine] | 0 to 49 | 0 to 49 | 80 to 100 | 50 to 79 | 80 to 100 | 0 to 49 | 80 to 100 | 80 to 100 | 0 to 49 |  |  |  | 
CCOC(=O)c1sc2ncnc(NC(C)c3ccc(OC)cc3)c2c1O (centres unmarked) [Compound 52, 5-Hydroxy-4-[1-(4-methoxyphenyl)ethylamino]thieno[2,3-d]pyrimidine-6-carboxylic Acid Ethyl Ester] | 0 to 49 | 0 to 49 |  |  | 0 to 49 | 0 to 49 | 0 to 49 | 0 to 49 | 50 to 79 | 151 to 152 |  |  | 
CC(Nc1ncnc2scc(Cl)c12)c1cc[nH]c1 (centres unmarked) [Compound 15] | 0 to 49 | 0 to 49 | 0 to 49 | 0 to 49 | 0 to 49 | 0 to 49 | 80 to 100 | 50 to 79 | 0 to 49 |  |  |  | 
Clc1csc2ncnc(C3Cc4ccccc4C3)c12 [Compound 17] | 50 to 79 | 0 to 49 | 0 to 49 | 0 to 49 | 0 to 49 | 0 to 49 | 0 to 49 | 0 to 49 | 0 to 49 |  |  |  | 
CC(Nc1ncnc2scc(Cl)c12)c1nc2ccccc2s1 (centres unmarked) [Compound 41] | 50 to 79 | 0 to 49 | 80 to 100 | 80 to 100 | 80 to 100 | 80 to 100 | 80 to 100 | 80 to 100 | 80 to 100 |  |  |  | 

— patent US8008487B2, “Substituted thieno[2,3-D]pyrimidines as fungicides” (priority 2004, dated 2011)
